In patent publication US11207419B2, “Cadherin-17 specific antibodies and cytotoxic cells for cancer treatment” (ARBELE LIMITED, priority 2016, dated 2021):

B1: Lic5: in-house mouse monoclonal antibody against CDH17, from hybridoma; VL SEQ ID NO. 29, VH SEQ ID NO. 30 (antibody, V domains shown)
VH: EVQLEESGGGLVKPGGSLKLPCAASGSSFSDFYMYWVRQTPEKRLEWVASISFDGTYTYYTDRVKGRFTISRDNAKNNLYLQMSSLKSEDTAMYYCARDRPAWFPYWGQGTLVTVSAA
VL: DIVLTQTTLSLNVSLGDQASISCRSSQSIVHSNGNTYLEWYLQRPGQSPKLLIYKVSNRFSGVPDRFSGSGSGTDFTLKISRVEAEDLGVYYCFQGSHVPLTFGAGTKLELKRA
notes: in-house mouse monoclonal antibody against CDH17, from hybridoma; 30
B2: Lic3: mouse monoclonal antibody against CDH17, produced using recombinant ectodomain 1-2 of CDH17 as immunogen (antibody, V domains shown)
VH: EVQLVESGGGLVKPGGSLKLSCAASGFSFSDYYMYWVRQAPEKRLEWVASISFDGTYTYYTDRVKGRFTISRDNAKNNLYLQMSSLKSEDTAMYYCARDRPAWFPYWGQGTLVTVSA
VL: DVLMTQIPLSLTVSLGDQASISCRSSQSIVHSNGNTYLEWYLQRPGQSPKLLIYKVSNRFSGVPDRFSGSGSGTDFTLKISRVEAEDLGVYYCFQGSHVPLTFGAGTKLELK
modifications: Lic3 VH; Lic3 VL
notes: mouse monoclonal antibody against CDH17, produced using recombinant ectodomain 1-2 of CDH17 as immunogen

Key:
MHCC97-L (97L) cells = test: In vitro cell proliferation MTT assay, 97L cells; type: cell-based, human; conditions: cultured 97L cells; for growth inhibition: treatment for 2 days, MTT
Experimental: (§1) A pre-determined number of 97L and PLC cells was seeded onto 96-well culture plates for 1 day. 150 ug/ml mouse IgG (Sigma-Aldrich, St Louis, Mo., USA) as a control for Lic5. After treatment, the proliferation of treated cells was measured using Cell Proliferation Kit I (Roche, Indianapolis, Ind., USA) and as described. In brief, MTT reagent was incubated with the treated cells for 4 hours. Colorimetric signals were then measured after addition of 10% SDS. Independent cell proliferation MTT assays were performed at least twice for result confirmation.
(§2) Before treating orthotopic tumor-bearing mice with the purified Lic5, the anti-tumor effect of Lic5 alone or combined with cisplatin or epirubicin in cultured HCC cell lines in vitro was examined using cell proliferation MTT assay (FIG. 31(A)).

PLC/PRF/5 (PLC) cells = test: In vitro cell proliferation MTT assay, PLC cells; type: cell-based, human; conditions: for growth inhibition: cultured PLC cells, treatment for 2 days, MTT
Experimental: as §1, §2

[1] = test system: luciferase-labelled 97L orthotopic liver tumors; test: Orthotopic tumor xenograft model, tumor growth by live imaging; type: in vivo, nude mice; conditions: net photon count relative to IgG control 3 weeks after treatment; 6 mg/kg Lic5, 1 mg/kg drug, intraperitoneal 3 times/week for 3 weeks
[2] = test system: 97L orthotopic liver tumors; test: Animal survival study, orthotopic liver tumors; type: in vivo, nude mice; conditions: for animal survival rate: 8 mg/kg Lic5, 1 mg/kg epirubicin, intraperitoneal 3 times/week for 3 weeks, monitored till 6 weeks after treatment
Experimental: Orthotopic liver tumors were established as above using 97L cells. Orthotopic tumor-bearing mice received the following treatments intraperitoneally 3 times/week for 3 weeks (11-15 mice in each group): (1) 8 mg/kg Lic5; (2) 1 mg/kg cisplatin; (3) 1 mg/kg epirubicin; (4) combined treatment of Lic5 and cisplatin; (5) combined treatment of Lic5 and epirubicin; (6) 8 mg/kg mouse IgG as Lic5 control. Animal survival was continuously monitored till 6 weeks after treatment.
Statistical analyses were performed using SPSS version 19 (SPSS Inc., Chicago, Ill., USA). Data presented in bar chart are expressed as mean ±SD/SEM. Student's t-test was used to calculate the significance of the difference between treatment groups and control group in both cell proliferation MTT assay and animal tumor xenograft experiments. Kaplan-Meier method was employed for survival analyses, while the differences in survival were calculated using log-rank test. A p-value of less than 0.05 was considered statistically significant.

GPC3 = biological target: T1, GPC3 (Homo sapiens, UniProt P51654); conditions: phase I study; cited from earlier work
T1 construct: host or cells: HCC patients

[3] = test system: Oum1 human gastric cancer cells; test: Internalization by confocal microscopy; type: cell-based; conditions: Lic5-FITC, over 30 mins at 37° C.
Experimental: (§3) FIG. 18 presents photographs showing the internalization of Lic5 into human gastric cancer cells as candidate for antibody drug conjugate; (a) photographs showing the staining of DAPI (blue) and Lic5-FITC (green) at indicated times; (b) photographs showing the merged staining of DAPI (blue) and Lic5-FITC (green) at indicated times; Lic5-FITC (green) internalization in Oum1 human gastric cancer cells over 30 mins at 37° C. was determined by confocal microscopy; nucleus was stained with DAPI.
as §3, with “In another aspect, the” for “FIG. 18 presents photographs showing the”, “cells is indicative of a” for “cells as”, “drug conjugate as shown in FIG. 18;” for “drug conjugate;”

CDH17 = biological target: T2, CDH17 (Homo sapiens, UniProt Q12864); test: Immunoreactivity by western blot and immunohistochemistry; type: binding; conditions: western blot on 97L cell lysate, immunohistochemistry on human HCC tissue
T2 construct: A single band of about 120 kDa corresponding to the apparent molecular weight of CDH17 was detected in CDH17-expressing 97L cells; endogenous in cells; host or cells: 97L cell lysate (western blot); paraffin-embedded human HCC tissue (immunohistochemistry)
Experimental: An in-house hybridoma cell line secreting Lic5 was generated as described. Hybridoma cells were maintained in DMEM supplemented with 10% FBS and 100 units/ml penicillin and streptomycin. To collect Lic5, hybridoma cells were cultured in serum-free hybridoma-SFM (Life Technologies) for 6 days. The cultured supernatant was collected and purified using Protein G column (Life Technologies). The concentration of the purified Lic5 was estimated using RC DC Protein Assay (Bio-Rad, Hercules, Calif., USA). The purity of Lic5 was assessed by sodium dodecyl sulfate-polyacrylamide gel electrophoresis (SDS-PAGE) under reducing condition, followed by Coomassie Blue staining. Immunoreactivity and specificity of Lic5 were confirmed by western blot using 97L cell lysate and by immunohistochemistry using paraffin-embedded human HCC tissue. […]
Immunohistochemistry was performed on paraffin-embedded orthotopic tumor xenografts and human HCC specimen as described. […] Signals were detected using EnVision+System-HRP Labelled Polymer Anti-mouse (Dako, Carpinteria, Calif., USA) and visualized using Liquid DAB+Substrate Chromogen System (Dako). […]
A single band of about 120 kDa corresponding to the apparent molecular weight of CDH17 was detected in CDH17-expressing 97L cells when Lic5 was used as a primary antibody for western blot (FIG. 30(B)). […]

[4] = test system: tumor cells of HCC and GC; test: Binding of mAbs to tumor cells; type: cell-based
Source text: Tumor antigens derived from clinical samples were selected for the antibodies with specificity directed against the tumor-restricted CDH17 epitopes. […] By lowering and/or varying the antibody affinity (through computational modeling), CDH17-CAR-T cells will have enhanced differential binding to the tumor cell surface.

[5] = 2 days, compared to mouse IgG-treated cells

| Molecule | growth inhibition (MHCC97-L (97L) cells) [%] | growth inhibition (PLC/PRF/5 (PLC) cells) [%] | xenograft growth inhibition [1] [%] | animal survival rate [2] [%] | binding to tumor cells [4] | other results |
| --- | --- | --- | --- | --- | --- | --- |
| N.N.[Cl][Pt][Cl] [cisplatin] | 31.6 | 37.6 | 48.6 | – | – | difference in survival compared to control group ([2]; log-rank test versus mouse IgG control): did not reach any statistically significant values |
| COc1cccc2c1C(=O)c1c(O)c3c(c(O)c1C2=O)C[C@@](O)(C(=O)CO)C[C@@H]3O[C@H]1C[C@H](N)[C@@H](O)[C@H](C)O1 [epirubicin] | 21.9 | 8.1 | 37.9 | 25 | – | – |
| GC33: anti-GPC3 mAb developed by Chugai | – | – | – | – | – | clinical response (GPC3): no partial or complete response |
| B1 | – | – | – | 63.6 | bind tumor cells of HCC and GC only | growth of cultured cells, single treatment (MHCC97-L (97L) cells; [5]): inhibited the growth; growth of cultured cells, single treatment (PLC/PRF/5 (PLC) cells; [5]): inhibited the growth; internalization into cells [3]: internalization; immunoreactivity against CDH17 (CDH17): high immunoreactivity against CDH17 |
| B2 | – | – | – | – | bind tumor cells of HCC and GC only | – |
